{"source": "patent US20150150892A1", "about": "“METHODS AND PRODUCTS RELATED TO LUNG CANCER” (Massachusetts Institute of Technology, priority 2012, published 2015)", "key": {"KP mice": {"test_system": "KP mice", "assay": "Kaplan-Meier survival of KP mice", "format": "in vivo, mouse", "conditions": "KP mice, bortezomib 1 mg/kg once a week for 4 weeks from 8 weeks after Adeno-Cre; control 76.8±10.6 days; P=0.001", "procedure": "(5A and 5B) Kaplan-Meier survival curve of vehicle control and bortezomib-treated KP (5A) and K (5B) mice. Arrows indicate weekly 1 mg/kg bortezomib regimen. […] Arrows indicate bortezomib injection.\nTo initiate lung tumors, cohorts of K or KP mice of 129svJae background were infected with 2.5×10^7 plaque-forming units of Adeno-Cre (University of Iowa) by intranasal inhalation, as described previously (2, 28). Mice were given bortezomib (LC Labs) in PBS [0.5% dimethylsulfoxide (DMSO)] at 1 mg/kg body weight i.v., as indicated.\nTo analyze the long-term effects of bortezomib therapy, we investigated whether a 4-dose regimen of bortezomib (19) could prolong survival of tumor-bearing mice. Using a cohort of KP mice, we treated tumor-bearing animals 8 weeks after Adeno-Cre infection with bortezomib once a week for 4 weeks (FIG. 10A)."}, "[1]": {"conditions": "cited from earlier work"}, "[2]": {"test_system": "Kras^G120;p53^fl/fl (high NF-κB) mice", "assay": "FIG. 19 study, mice with high NF-κB", "format": "in vivo, mouse", "conditions": "1 kg/mg IV bortezomib", "description": "(§1) FIG. 19 is a schetaic diagram showing the experimental conditions and a set of graphs showing the results. Two sets of mice were treated with […] IV bortezomib, Kras^G120;p53^fl/fl (high NF-κB, top panel) or KrasL^St-G12Dwt (low NF-κB, bottom panel). […] The relapsed tumors have high Hmcgs2.\n(§2) Mice having either high or low levels of NF-κB were treated with […] IV bortezomib and examined for tumor progression, apoptosis and survival. The mice are Kras^G120;p53^fl/fl (high NF-κB) or KrasL^St-G12Dwt (low NF-κB). […] The relapsed tumors have high Hmcgs2."}, "[3]": {"conditions": "human, in vivo; cited from earlier work"}, "[4]": {"test_system": "advanced NSCLC patients previously treated with chemotherapy", "conditions": "cited from earlier work"}, "[5]": {"test_system": "KrasL^St-G12Dwt (low NF-κB) mice", "assay": "FIG. 19 study, mice with low NF-κB", "format": "in vivo, mouse", "conditions": "1 mg/kg IV bortezomib", "description": "as §1, §2"}, "[6]": {"test_system": "NF-κB target genes in H2122 and H2009 cell lines", "assay": "QPCR of NF-κB target genes in human NSCLC cell lines", "format": "cell-based", "conditions": "10 nM Bortezomib, 24 hours", "description": "FIG. 8: Bortezomib inhibits NF-κB signaling in human NSCLC cells. H2122 (KRASG12C;TP53c176F/Q16L) (8A) and H2009 (KRASG12A;TP53R273L) (8B) cell lines were treated with vehicle control or 10 nM Bortezomib for 24 hours. NF-κB target gene expression was measured by QPCR. Error bars are s.d. (n=3). N.D. denotes not detectable. Mutation information is from the Sanger COSMIC database.\n(§3) RNA was purified using TRIzol (Invitrogen), according to the manufacturer's instructions. One microgram of RNA was reverse transcribed using the High-Capacity cDNA Reverse Transcription Kit (Applied Biosystems). Real-time PCR (quantitative PCR) amplification was performed using Taqman probes (Applied Biosystems). Data were normalized to the Gapdh (mouse) or GAPDH (human) levels."}, "[7]": {"test_system": "luciferase-tagged KP cells transplanted into immunocompetent recipient mice", "assay": "Orthotopic lung tumor model, survival and bioluminescence imaging", "format": "in vivo, mouse", "description": "FIG. 6: Imaging bortezomib response and resistance in an orthotopic lung tumor model. (6A) experimental design. Lung cancer cells derived from KP tumors were infected with a retrovirus expressing luciferase and transplanted into immunocompetent recipient mice by tail vein injection. (6B) Kaplan-Meier survival curve of control and bortezomib-treated recipient mice (n=6; P=1.4×10−5). A total of 10,000 cells were transplanted, and treatment started after 35 days. (6C) representative bioluminescence imaging of recipient mice (n=6) treated with vehicle control or bortezomib, as in 6B. D0 refers to the first treatment. Arrows indicate weekly bortezomib regimen.\n(§4) FIG. 7: The NF-κB inhibitor Bay-117082 leads to lung tumor regression in vivo. (7A) quantitative PCR analysis of NF-κB target gene expression in KP cells treated with 10 μM Bay-117082 for indicated hours. Error bars are SD (n=3). (7B) Bay-117082 treatment leads to lung tumor regression and delays tumor progression in the orthotopic lung tumor model. A total of 50,000 luciferase-tagged KP cells were transplanted into recipient mice (n=6), and treatment was started at 19 days after transplantation (set at D0). Mice were treated with vehicle control or 10 mg/kg Bay-117082 by i.p. injection, and imaged at the indicated time points. Arrows indicate Bay-117082 injections. (7C) Bay-117082 prolongs survival in the KP model (n=6; P=0.008). “i.p. dosing” indicates treatment with 3 doses per week.\nAt indicated time points, mice were scanned for 15 min under isoflurane anesthesia, using a small animal eXplore Locus microCT (GE Healthcare) at 45-μm resolution, 80 kV, with 450-mA current (47). Images were acquired and processed using GE eXplore software. Bioluminescence imaging was performed as previously described (48). Mice were imaged for 60 seconds, and signals in the lung were quantified using Xenogen software.\nTo facilitate imaging of the bortezomib treatment response, we adapted a transplantation-based orthotopic lung cancer mouse model (37). As outlined in FIG. 6A, we infected KP cell lines with a retrovirus expressing firefly luciferase. The cells were transplanted into immunocompetent recipient mice by i.v. injection, resulting in the development of in situ lung tumors that could be imaged and quantified by bioluminescence imaging.\nTo determine whether bortezomib therapy was effective in the orthotopic model, we transplanted 10,000 KP cells into host mice and treated the mice 5 weeks later, either with control or with a weekly 4-dose regimen of bortezomib (37)."}, "KP and KP^M cells": {"test_system": "KP and KP^M cells", "assay": "Trypan blue quantification of cell death", "format": "cell-based, mouse", "conditions": "24 hours, indicated concentrations", "description": "(§5) FIG. 1. Bortezomib inhibits NF-κB signaling and induces apoptosis in murine lung adenocarcinoma cell lines. (1A) reduction of nuclear p65 level by bortezomib. Two KP (KrasLSL-G12D/wt;p53flox/flox) cell lines (KP1 and KP2) were treated with 5 nM bortezomib (BZ) or vehicle control (ctrl) for 24 hours. Nuclear (N) and cytoplasmic (C) fractions of protein lysates were immunoblotted with the indicated antibodies. NEMO and Parp serve as cytoplasmic and nuclear loading controls, respectively. (1B) quantitative PCR analysis of a subset of NF-κB target genes in 5 nM bortezomib (BZ)-treated KP cells at the indicated time points. Vehicle control is set to 1. (1C) apoptosis in KP and KP^M (KrasLSL-G12D/wt;p53R127H/−) cells induced by bortezomib. Cells were pre-treated with 5 nM bortezomib for 24 hours, and protein lysates were immunoblotted with CC3 and tubulin antibodies. (1D) quantification of cell death in bortezomib-treated cells. Cells were treated with the indicated concentrations of bortezomib for 24 hours, and dead cells were quantified by Trypan blue staining. Error bars are SD (n=3).\nAs the NF-κB pathway is known to inhibit apoptosis through its regulation of antiapoptotic genes, we next addressed the cytotoxicity of bortezomib in vitro (6)."}, "[8]": {"test_system": "LKR13 cells and 3TZ fibroblasts", "assay": "Trypan blue quantification of cell death, control cells", "format": "cell-based, mouse", "conditions": "24 hours"}, "NF-κB target genes": {"test_system": "NF-κB target genes", "assay": "Quantitative PCR of NF-κB target genes in KP cells", "format": "cell-based, mouse", "description": "as §5, §4, §3"}, "[9]": {"conditions": "orthotopic model, weekly bortezomib"}, "[10]": {"conditions": "5 nM bortezomib, time course, KP cells"}}, "data": [{"smiles": "CC(C)C[C@H](NC(=O)[C@H](Cc1ccccc1)NC(=O)c1cnccn1)B(O)O", "note": "[bortezomib, N-(2-pyrazine) carbonyl-L-phenylalanine-L-leucine boronic acid]", "values": [{"measurement": "survival", "setting": "KP mice", "result": "104.2 ± 19.8", "unit": "days"}, {"measurement": "half-life in vivo", "setting": "[1]", "result": "short half-life"}, {"measurement": "tumor response, apoptosis and survival (FIG. 19)", "setting": "[2]", "result": "rapid tumor progression, apoptosis, and increased survival"}, {"measurement": "side effects in the clinic", "setting": "[3]", "result": "manageable side effects"}, {"measurement": "effects in Phase II clinical trials", "setting": "[4]", "result": "modest effects"}, {"measurement": "tumor response, apoptosis and survival (FIG. 19)", "setting": "[5]", "result": "no tumor regression, apoptosis and no survival advantage"}, {"measurement": "expression of NF-κB target genes MYC, BCL2, XIAP", "setting": "[6]", "result": "downregulated"}, {"measurement": "average survival", "setting": "[7]; 10,000 KP cells transplanted, weekly 4-dose bortezomib from 5 weeks, control 47.0±2.0 days, P=1.4×10^−5", "result": "64.0 ± 5.4", "unit": "days"}, {"measurement": "bioluminescence tumor signal at day 2 and day 4", "setting": "[7]; orthotopic model, after first bortezomib treatment", "result": "marked tumor regression"}, {"measurement": "effect of a 4th dose", "setting": "[7]; [9]", "result": "ineffective"}, {"measurement": "lung tumor signal after the 2nd and 3rd treatments", "setting": "[7]; [9]", "result": "still decreased or stabilized"}, {"measurement": "cell death by Trypan blue counting", "setting": "KP and KP^M cells", "result": "caused cell death in a dose-dependent manner"}, {"measurement": "cell death by Trypan blue counting", "setting": "[8]", "result": "did not show substantial cell death"}, {"measurement": "I16 mRNA level", "setting": "NF-κB target genes; 5 nM bortezomib, KP cells", "result": "increased"}, {"measurement": "expression of inflammation NF-κB targets I16, Tnf, Mmp3", "setting": "NF-κB target genes; [10]", "result": "not reduced"}, {"measurement": "expression of proliferation related NF-κB target genes c-Myc and Cyclin D1", "setting": "NF-κB target genes; [10]", "result": "reduced expression"}, {"measurement": "expression of NF-κB-regulated antiapoptosis genes Bcl2, Bclx1, Birc2 (cIAP1), Birc5 (Survivin)", "setting": "NF-κB target genes; 5 nM bortezomib, time course, KP cells, real-time PCR", "result": "consistently downregulated"}, {"measurement": "Bcl2 and Myc inhibition, bortezomib compared with Bay-117082", "setting": "NF-κB target genes; KP cells in vitro, FIG. 1B and FIG. 7A", "result": "more robust"}]}]}
